This data set in a line: in vitro. The note with it: human, hela cells, % viability.

The term viability denotes a read-out of living cells in per cent, often relative to untreated cells. For `O=C(Cc1cccs1)N1CCC(n2nc(C3CC3)ccc2=O)CC1` [CBK284243], the viability at 28.5 h, 10 µM was 78.6%.
Same read-out and setting: the result for `Cc1ccc(-c2nc3ncccc3o2)cc1NC(=O)c1cccnc1` [CBK268774] reads 100%.
On the same count and under the same terms, the value for `COc1ccc(C(C)C)cc1-c1cnc2[nH]c(=O)n(C3CC3)c2n1` [CBK064915] was 91.2%; that for `O=C1NCC2(C/C=C/CCOc3ccccc31)CCN(C(=O)CCN1CCCC1)CC2` [CBK292020] was 87.5%.
On the same count and under the same terms, the result for `CC(=O)Nc1cccc(C(=O)N(Cc2ccccn2)CC2CCCO2)c1` (stereo not shown) [CBK306867] reads 90.5%.
With `O=C(O)c1ccccc1NC(=O)N1CCc2[nH]cnc2C1c1cccc(F)c1` (stereo not shown) [CBK286824], the viability at 28.5 h, 10 µM worked out at 93.7%.
Consider `Cc1c(C)n(C)c2nc(N3CCCC3)nc(N3CCCC3)c12` [CBK016683C], for which the viability at 28.5 h, 10 µM came to 90.1%.
The same measure, in the same setting: the result for `O=C(c1ccco1)N1CCN(c2cc(-c3ccc(OCc4ccccc4)cc3)ncn2)CC1` [CBK037844] reads 97.6%; that for `O=C(COc1ccccc1[N+](=O)[O-])Nc1cc(C(=O)O)cc(C(=O)O)c1` [CBK263983], 93.9%.
Still for that read-out and setting: the result for `COc1ccc(C(NC(=O)C2CCN(CCOc3ccc4ccccc4c3)CC2)c2ccccc2C)cn1` (stereo not shown) [CBK148792] reads 73.1%; that for `O=C(Nc1ccncc1)c1cc(-c2ccncc2)nc2ccccc12` [CBK287787], 100%; that for `COCCOC(=O)N1CCC(C(=O)NC(c2ccccc2)c2ccsc2)CC1` (stereo not shown) [CBK060155], 94.4%.
Same read-out and setting: the result for `O=C(c1ccccc1)N1C[C@H](c2ccsc2)[C@H]2CN(Cc3ccsc3)CC[C@H]21` [CBK285604] reads 118%; that for `CC(C)(C)C1CCc2onc(C(=O)NCCn3ccnc3)c2C1` (stereo not shown) [CBK281581], 87.1%; that for `COCC(=O)N1CC[C@H](c2nnc(-c3ccncc3)o2)C1` [CBK289413], 88%.
With `COc1ccc(Nc2cn(C)nc2C(=O)O)cc1` [CBK269814], the viability at 28.5 h, 10 µM came out at 103%.
On the same count and under the same terms, the value for `O=C(CCc1cccnc1)N1CCCc2ccccc21` [CBK200344] was 100%; that for `COc1cc(NC(=O)NCCc2cccs2)cc(OC)c1OC` [CBK043347] was 94.6%.
The same measure, in the same setting: the value for `Cc1ccc(S(=O)(=O)N(CC(=O)NC2CC3CCC2C3)c2cc(Cl)cc(Cl)c2)cc1` (stereo not shown) [CBK263995] was 85.3%.
On the same count and under the same terms, the value for `c1ccc(CCn2nnnc2CN2CCN(c3ccccc3)CC2)cc1` [CBK069271] was 95.2%.
Consider `Cc1ccc(NC(=O)CC2SC(NC3CCCCC3)=NC2=O)c(C)c1` (stereo not shown) [CBK059500], for which the viability at 28.5 h, 10 µM came out at 87.9%.
Same read-out and setting: the value for `Cc1ccc(S(=O)(=O)NCCn2nc(C)c(C)c2C)s1` [CBK281502] was 86.7%.
The same measure, in the same setting: the result for `Cc1cnc2c(Cl)c(C(=O)N3CCN(C)C4(CCNCC4)C3)nn2c1` [CBK306513] reads 92.9%; that for `CCN1CCC2CCC(C1)N2Cc1ccc(Oc2cnccn2)cc1` (stereo not shown) [CBK304034], 95.7%.
Still for that read-out and setting: the result for `CN(C)CCN1CCN(c2nc(-c3ccc4[nH]ccc4c3)cn3ccnc23)CC1` [CBK036587] reads 102%; that for `CCc1nn(CC(=O)N2CCCCC2)c(=O)c2cc3occc3n12` [CBK283674], 77%.
`Fc1cccc(F)c1CN1CCN(CCc2ccccc2)CC1` [CBK126422]: the viability at 28.5 h, 10 µM came out at 89.9%.
The same measure, in the same setting: the result for `CC(=O)NCC(=O)N1CCC[C@@H]2[C@H]1CCCCc1ccccc1OCC(=O)N2C` [CBK292011] reads 117%.
Take `O=C(c1ccccc1NS(=O)(=O)c1ccc(Br)cc1)N1CCOCC1` [CBK043340]: the viability at 28.5 h, 10 µM worked out at 100%.
Same read-out and setting: the result for `N#Cc1c(C(F)(F)F)cc(-c2cccs2)nc1SCC(O)CN1CCSCC1` (stereo not shown) [CBK265947] reads 88.2%; that for `O=C(O)CCCn1cc(NC(=O)Cc2ccccc2)cn1` [CBK269821], 93.9%; that for `O=C(/C=C(O)/C(O)=C/C(=O)c1ccc(Cl)cc1)c1ccc(Cl)cc1` [CBK261428], 102%.
Consider `COc1cccc(C(NC(=O)C2COc3c(cccc3OC)C2)c2ccccc2)c1` (stereo not shown) [CBK285736], for which the viability at 28.5 h, 10 µM came to 94.7%.
Take `COc1ccc(NC(=O)C2CCCCC2C(=O)O)c(C)c1` (stereo not shown) [CBK270301]: the viability at 28.5 h, 10 µM was determined as 83.9%.
As for `COc1cccc(-c2nnn(CC(=O)O)n2)c1` [CBK068202], the viability at 28.5 h, 10 µM was 94.9%.
Same read-out and setting: the value for `O=C(Nc1nnc(-c2ccccc2)o1)C1COc2ccccc2O1` (stereo not shown) [CBK287596] was 103%.
In the case of `CC(NC(=O)C1CCN(CCN2C(=O)c3ccccc3C2=O)CC1)c1ccc(F)cc1` (stereo not shown) [CBK148750], the viability at 28.5 h, 10 µM was 107%.
Same read-out and setting: the value for `CNC(=O)c1sc2ccccc2c1C1CCN(Cc2cnn(-c3ccc(F)cc3)c2)C1` (stereo not shown) [CBK285882] was 84.1%; that for `Nc1c(-c2cccc(C(F)(F)F)c2)cnc2ncccc12` [CBK083710] was 105%.
Consider `OC1(Cn2ccc3ncccc32)CCN(Cc2ccccc2F)CC1` [CBK284752], for which the viability at 28.5 h, 10 µM was found to be 93.3%.
The same measure, in the same setting: the value for `O=C(NC1CCN(CC2(c3ccccc3)CC2)CC1)c1cc[nH]n1` [CBK285351] was 88.4%.
As for `O=C(NCCC1=CCCCC1)c1cnc2n(c1=O)CCS2` [CBK287373], the viability at 28.5 h, 10 µM stood at 89.8%.
Same read-out and setting: the value for `COc1ccc(CNC(=O)NC(=O)C2CCN(CCCc3ccc4c(c3)OCO4)CC2)c(OC)c1` [CBK034875] was 100%; that for `Cn1c(=O)n(C)c2cc(CNCc3ccc(C(=O)O)cc3)ccc21` [CBK286538] was 95.8%.
As for `C=CCN1C(=O)NC(=O)C(CCc2ccccn2)(CCc2ccccn2)C1=O` [CBK268761], the viability at 28.5 h, 10 µM (bulk resorufin, single well) was found to be 104%.
Take `O=C(O)CCN1CCCC2(CCN(C(=O)c3ccoc3)C2)C1` (stereo not shown) [CBK137139]: the viability at 28.5 h, 10 µM turned out to be 93.4%.
Still for that read-out and setting: the value for `c1ccc2c(CNCc3ccc4c(c3)OCO4)c[nH]c2c1` [CBK262159] was 89.5%.
For `O=C(O)c1ccc(CN2CCC3(C/C=C/CNC(=O)c4ccccc4OCCNC3=O)CC2)cc1` [CBK292002], the viability at 28.5 h, 10 µM stood at 109%.
On the same count and under the same terms, the value for `Nc1c(-c2cc(F)cc(F)c2)cnc2ncccc12` [CBK083677] was 111%; that for `O=C(COc1ccc([N+](=O)[O-])cc1)N/N=C/c1cc(Br)cc(Br)c1O` [CBK262094] was 98.3%.
Consider `Cc1ccc(S(=O)(=O)NCC(=O)Nc2cc3ccccc3c(Br)n2)cc1` [CBK063300], for which the viability at 28.5 h, 10 µM turned out to be 101%.
On the same count and under the same terms, the result for `CC(C)Nc1nccnc1Sc1cccc(O)c1` [CBK093725] reads 111%; that for `C=Cn1cc(CN2CCC(O)(c3ccccc3C)CC2)c(C)n1` [CBK282580], 93.7%; that for `CCC(C)NC(=O)c1ccc2nccnc2c1` (stereo not shown) [CBK268921], 89.4%.
With `Cc1ccc(NC(=O)C(=O)NCCCN2CCOCC2)cc1C` [CBK264836], the viability at 28.5 h, 10 µM was 106%.
On the same count and under the same terms, the value for `Cc1nc2ccccc2c(=O)n1CC(N)=O` [CBK004145] was 89.8%.
On the same count and under the same terms, the result for `CC(=O)Nc1ccc(S(=O)(=O)N2CCN(S(=O)(=O)c3ccc(C)cc3)CC2)cc1` [CBK264276] reads 101%; that for `Cc1ccccc1NC(=O)NC(=O)C1CCN(S(C)(=O)=O)CC1` [CBK034862], 87.7%; that for `O=c1cc(O)c2c(=O)n(-c3ccccc3)c(-c3ccccc3)cc2o1` [CBK006116], 89.1%.
On the same count and under the same terms, the result for `CCOC(=O)c1ccc(-c2nccnc2Oc2cccc(OC)c2)cc1` [CBK107115] reads 81%.
For `COc1cncc(-c2cccc(N3CCN(CCN(C)C)CC3)n2)c1` [CBK037024], the viability at 28.5 h, 10 µM amounted to 97.4%.
Same read-out and setting: the result for `Cc1nccn1CCCn1cncc1-c1cnn(C2CCCCC2)c1` [CBK281816] reads 105%; that for `O=C1CSC2(C(=O)N(Cc3ccccc3)c3ccccc32)N1c1ccccc1` (stereo not shown) [CBK092391], 100%; that for `OCc1ccc(OCCCOc2cccc3cccnc23)cc1` [CBK269674], 85.8%.
On the same count and under the same terms, the result for `Cc1cccc(NCC2CCN(Cc3cc(=O)n4ccccc4n3)C2)n1` (stereo not shown) [CBK305756] reads 100%; that for `O=C(c1ccc(-c2ccc(F)cc2)o1)N1CCC(n2c(=O)oc3ccccc32)CC1` [CBK286175], 104%.
Still for that read-out and setting: the value for `CC(C)(C)OC(=O)N1CCC2(CC1)NC(=O)c1cc(-c3cccc4ncccc34)ccc1O2` [CBK083674] was 109%.
With `NC(=S)c1ccc2c(c1)OCO2` [CBK022803], the viability at 28.5 h, 10 µM stood at 86.3%.
In the case of `O=C(O)CC1OC(=O)c2cc3c(cc21)C(=O)OC3CC(=O)O` (stereo not shown) [CBK262928], the viability at 28.5 h, 10 µM came to 100%.
On the same count and under the same terms, the value for `COc1ccccc1CC(C)NC(=O)c1ccc2nc(C)[nH]c2c1` (stereo not shown) [CBK283261] was 86.1%; that for `CS(=O)(=O)Nc1ccc(CNC(=O)c2ccccc2Nc2cccc(C(F)(F)F)c2)cc1` [CBK161732] was 85.5%.
The same measure, in the same setting: the result for `CC(C)C(C(=O)Nc1ccc(S(=O)(=O)N2CCOCC2)cc1)N1C(=O)c2ccccc2C1=O` (stereo not shown) [CBK265607] reads 97.6%; that for `C[C@H](c1ccccc1)n1c(=O)[nH]c2ncc(-c3ccc(N(C)C)cc3)nc21` [CBK064367], 102%.
On the same count and under the same terms, the result for `Cc1nnc(SCc2cccc(Oc3ccccc3)c2)n1N` [CBK265714] reads 104%; that for `O=C(NCCN1CCCCC1)C1CC(=O)N(CCc2ccccc2)C1` (stereo not shown) [CBK305986], 91.7%.
`CCN(CC)Cc1nccn1-c1ccc([N+](=O)[O-])cc1C(=O)c1ccccc1Cl` [CBK011562F]: the viability at 28.5 h, 10 µM came to 105%.
As to `CC(=O)N1CCC2(CC1)OCc1cc(-c3ccc(Cl)cc3)ccc1O2` [CBK060974], for the setting “bulk resorufin, single well”, the viability at 28.5 h, 10 µM was 113%.
Take `c1cc(N2CCN(CCN3CCCC3)CC2)ncc1-c1ccc2c(c1)OCO2` [CBK037769]: the viability at 28.5 h, 10 µM was 95.1%.
`O=C(O)c1cccc(NS(=O)(=O)c2ccc(Cl)c(C(=O)Nc3ccc(Br)cc3)c2)c1` [CBK263241]: the viability at 28.5 h, 10 µM is 87%.

The record behind these values is publication PMC12040169 (PLOS Biology, 2025).
